Test results taken from patent US9066971B2 (priority 2010, dated 2015).

System: mouse colon 26 cell line
Assay type: in vivo
Settings: 18 mg/kg aspirin alone, tail vein, twice a week; day 23; compared to PBS alone
Protocol: The shedding microvesicles derived from E. coli, P. aeruginosa, and S. enteritidis were assayed for anticancer activity. A mouse colon 26 cell line was subcutaneously injected at a dose of 1×10^6 cells into mice, and cultured. After one week, a PBS solution containing 1 μg, or 5 μg of each of the Gram-negative bacterial cell-derived microvesicles was injected at a dose of 100 μl twice a week via the tail vein into the mice which were divided into groups, each consisting of three. On day 23 after the transplantation of cancer cells, the sizes of colon cancer tissue were monitored. The volume of cancer tissue was calculated by the equation V=l×s^2/2, wherein 1 is a length of the longest axis of a tumor and s is a length of the axis perpendicular to the longest axis.
The shedding microvesicles derived from S. aureus and Lactobacillus acidophilus were assayed for anticancer activity. […] On day 23 after the transplantation of cancer cells, the sizes of colon cancer tissue were monitored. The volume of cancer tissue was calculated by the equation V=l×s^2/2, wherein 1 is a length of the longest axis of a tumor and s is a length of the axis perpendicular to the longest axis.
A mouse colon 26 cell line was subcutaneously injected at a dose of 1×10^6 cells into mice, and cultured. […] On day 23 after the transplantation of cancer cells, the sizes of colon cancer tissue were monitored. […]

## CC(=O)Oc1ccccc1C(=O)O [aspirin]
  size of colon tumors: no differences in the size of colon tumors
